pIC50: −log10 of the molar value.
How the values were obtained:
BACE1 [1] = molecular target: T1, BACE1 (Homo sapiens, UniProt P56817); assay: In Vitro Enzymatic BACE FRET (Fluorescence Resonance Energy Transfer) Assay; assay type: biochemical; conditions: read-out: BACE1 FRET assay; for IC50: Table III, IC50's in uM ranges
Method in brief: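 Acetate buffer at pH 4.2 with 10% DMSO and 100 uM genapol hosts the enzymatic reaction, initiated by 50 nM FRET substrate and allowed to proceed one hour. Tris quench to neutral pH precedes the fluorescence measurement.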

BACE1 [2] = molecular target: T1, BACE1; assay: In Vitro BACE Cell-based Assay (HEK cell assay): Aβ40 in conditioned medium of cells stably expressing Amyloid Precursor Protein, sandwich ELISA; conditions: read-out: HEK cell assay; for IC50: Table III, IC50's in uM ranges
Method in brief: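 APP-expressing cells were cultured 24 h in DMEM/10% FBS, then treated 24 h with compounds in 10-point dose response (top 100 μM or 10 μM; 0.1% DMSO final). Secreted Aβ40 was quantified by sandwich ELISA (pAb40 capture, biotinylated 6E10 detection, Europium TRF); IC50 from percent inhibition versus concentration.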

[3] = in vitro BACE FRET enzyme assay, IC50 class symbols
[4] = HEK cell-based assay, Aβ40 in conditioned medium, IC50 class symbols

T1 sequence (P56817 46-501, species assumed): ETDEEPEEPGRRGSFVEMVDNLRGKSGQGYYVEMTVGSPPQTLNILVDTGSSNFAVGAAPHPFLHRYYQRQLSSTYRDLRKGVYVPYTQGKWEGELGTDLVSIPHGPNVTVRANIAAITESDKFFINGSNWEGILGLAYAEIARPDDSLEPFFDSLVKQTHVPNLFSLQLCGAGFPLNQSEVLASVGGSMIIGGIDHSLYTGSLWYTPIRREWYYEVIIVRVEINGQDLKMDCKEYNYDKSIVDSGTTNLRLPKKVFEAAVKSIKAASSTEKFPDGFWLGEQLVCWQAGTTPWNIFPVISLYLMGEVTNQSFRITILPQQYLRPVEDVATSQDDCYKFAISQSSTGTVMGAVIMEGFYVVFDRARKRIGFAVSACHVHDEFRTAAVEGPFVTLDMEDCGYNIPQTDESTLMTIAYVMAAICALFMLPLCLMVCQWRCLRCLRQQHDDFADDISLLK

Compound: NC1=N[C@]2(CO1)c1cc(C(=O)N3CCCC3)ccc1Oc1ccc(-c3cccnc3)cc12 [compound 945]
- pIC50 (BACE1 [1]): 6.00 to 7.00
- pIC50 (BACE1 [2]): 6.00 to 7.00

Compound: COC(C)(C)C#Cc1cnc2c(c1)[C@@]1(COC(N)=N1)c1cc(-c3ccnnc3)ccc1O2 [compound 681]
- pIC50 (BACE1 [1]): 5.30 to 6.00
- pIC50 (BACE1 [2]): < 5.30

Compound: Cc1cccc(-c2ccc3c(c2)[C@]2(COC(N)=N2)c2cc(-c4cncnc4)ccc2O3)c1 [compound 998]
- pIC50 (BACE1 [1]): > 7.00
- pIC50 (BACE1 [2]): > 7.00

Compound: CC(C)(C)COc1ccc2c(c1)C1(COC(N)=N1)c1cc(Br)ccc1O2 (stereo not drawn) [Example 57, 2′-bromo-7′-(2,2-dimethylpropoxy)spiro[1,3-oxazole-4,9′-xanthen]-2-amine]
- pIC50 (BACE1 [1]; Table II): 6.00 to 7.00
- pIC50 (BACE1 [2]; Table II, Aβ40, 24 h incubation): 5.30 to 6.00

Compound: CC(C)(C)COc1cnc2c(c1)[C@]1(COC(N)=N1)c1cc(-c3cncc(F)c3)ccc1O2 [compound 389]
- pIC50 (BACE1 [1]; [3]): > 7.00
- pIC50 (BACE1 [2]; [4]): > 7.00

Compound: C=C(C)COc1ccc2c(c1)[C@]1(COC(N)=N1)c1cc(-c3cccnc3)ccc1O2 [compound 146]
- IC50 (BACE1 [1]): < 0.1 µM
- IC50 (BACE1 [2]): 0.1 to 1 µM

Compound: COCC#Cc1ccc2c(c1)[C@]1(COC(N)=N1)c1cc(-c3cncnc3)ccc1O2 [156a]
- IC50 (BACE1 [1]): < 0.1 µM
- IC50 (BACE1 [2]): < 0.1 µM

Compound: NC1=N[C@@]2(CO1)c1cc(-c3cccnc3)ccc1Oc1cnc(N3CCN(CC(=O)O)CC3)cc12 [compound 396]
- pIC50 (BACE1 [1]; [3]): > 7.00
- pIC50 (BACE1 [2]; [4]): 6.00 to 7.00

Compound: COC(C)(C)C#Cc1cc(F)c2c(c1)[C@]1(COC(N)=N1)c1cc(-c3ccc(F)nc3)ccc1O2 [compound 646]
- pIC50 (BACE1 [1]; Table IV, class symbols): > 7.00
- pIC50 (BACE1 [2]; Table IV, class symbols): > 7.00

Compound: CC(C)(C)OC(=O)N1CC=C(c2ccc3c(c2)[C@]2(COC(N)=N2)c2cc(-c4cccnc4)ccc2O3)CC1 [compound 819]
- pIC50 (BACE1 [1]; Table IV, class symbols): > 7.00
- pIC50 (BACE1 [2]; Table IV, class symbols): 6.00 to 7.00

Compound: NC1=N[C@]2(CO1)c1cc(-c3cccnc3)ccc1Oc1cnc(-c3cccnc3)cc12 [compound 954]
- pIC50 (BACE1 [1]): > 7.00
- pIC50 (BACE1 [2]): 6.00 to 7.00

Compound: COC(=O)CCc1ccc2c(c1)[C@]1(COC(N)=N1)c1cc(-c3cncnc3)ccc1O2 [compound 877]
- pIC50 (BACE1 [1]; Table IV, class symbols): 6.00 to 7.00
- pIC50 (BACE1 [2]; Table IV, class symbols): 6.00 to 7.00

Compound: CC(C)(F)COc1cnc2c(c1)[C@]1(COC(N)=N1)c1cc(-c3cccnc3)ccc1O2 [compound 450]
- pIC50 (BACE1 [1]): > 7.00
- pIC50 (BACE1 [2]; HEK cells): > 7.00

Compound: CCOc1ccc(-c2cnc3c(c2)[C@]2(COC(N)=N2)c2cc(OCC(C)(C)C)ccc2O3)cn1 [compound 804]
- pIC50 (BACE1 [1]; Table IV, class symbols): > 7.00
- pIC50 (BACE1 [2]; Table IV, class symbols): > 7.00

Compound: NC1=N[C@@]2(CO1)c1ccccc1Oc1ccc(-c3cccnc3)cc12 [compound 640]
- pIC50 (BACE1 [1]; Table IV, class symbols): 5.30 to 6.00
- pIC50 (BACE1 [2]; Table IV, class symbols): 5.30 to 6.00

Compound: NC1=N[C@]2(CO1)c1ccccc1Oc1ncc(-c3cncnc3)cc12 [compound 661]
- pIC50 (BACE1 [1]; Table IV, class symbols): 6.00 to 7.00
- pIC50 (BACE1 [2]; Table IV, class symbols): 6.00 to 7.00

Compound: Cc1ccc(-c2ccc3c(c2)[C@]2(COC(N)=N2)c2cc(-c4cncnc4)ccc2O3)o1 [compound 880]
- pIC50 (BACE1 [1]; Table IV, class symbols): > 7.00
- pIC50 (BACE1 [2]; Table IV, class symbols): > 7.00

Compound: COC(=O)c1ccc2c(c1)[C@@]1(COC(N)=N1)c1cc(OCC(C)(C)C)ccc1O2 [compound 875]
- pIC50 (BACE1 [1]; Table IV, class symbols): > 7.00
- pIC50 (BACE1 [2]; Table IV, class symbols): 6.00 to 7.00

Compound: CC(=O)c1ccccc1-c1ccc2c(c1)[C@]1(COC(N)=N1)c1cc(OCC(C)(C)C)ccc1O2 [compound 190]
- IC50 (BACE1 [1]): 0.1 to 1 µM
- IC50 (BACE1 [2]): > 5 µM

Compound: CC(C)(C)COc1ccc2c(c1)[C@]1(COC(N)=N1)c1cc(CO)ccc1O2 [compound 828]
- pIC50 (BACE1 [1]; Table IV, class symbols): 5.30 to 6.00
- pIC50 (BACE1 [2]; Table IV, class symbols): 5.30 to 6.00

Compound: Cc1cncc(-c2ccc3c(c2)[C@@]2(COC(N)=N2)c2cc(OCC(C)(C)O)ccc2O3)c1 [compound 223]
- IC50 (BACE1 [1]): < 0.1 µM
- IC50 (BACE1 [2]): < 0.1 µM

Compound: NC1=N[C@@]2(CO1)c1cc(-c3ccc4nccn4c3)ccc1Oc1ncccc12 [compound 572]
- pIC50 (BACE1 [1]; Table IV, class symbols): < 5.30
- pIC50 (BACE1 [2]; Table IV, class symbols): 5.30 to 6.00

Compound: NC1=N[C@]2(CO1)c1cc(-c3cccnc3)ccc1Oc1cnc(C3CC3)cc12 [compound 678]
- pIC50 (BACE1 [1]): > 7.00
- pIC50 (BACE1 [2]): 6.00 to 7.00

Compound: NC1=N[C@@]2(CO1)c1cc(-c3cccnc3)ccc1Oc1cnc([C@@H]3CCCCO3)cc12 [compound 696]
- pIC50 (BACE1 [1]): > 7.00
- pIC50 (BACE1 [2]): > 7.00

Compound: CC(C)(C)CC(=O)c1ccc2c(c1)[C@@]1(CSC(N)=N1)c1cc(-c3cncnc3)ccc1O2 [compound 762]
- pIC50 (BACE1 [1]): 6.00 to 7.00
- pIC50 (BACE1 [2]): 5.30 to 6.00

Compound: NC1=N[C@@]2(CO1)c1cc(-c3cncnc3)ccc1Oc1c(F)cccc12 [compound 553]
- pIC50 (BACE1 [1]; Table IV, class symbols): > 7.00
- pIC50 (BACE1 [2]; Table IV, class symbols): 6.00 to 7.00

Compound: CC(C)(C)COc1ccc2c(c1)[C@]1(COC(N)=N1)c1cc(-c3c[nH]cn3)ccc1O2 [compound 978]
- pIC50 (BACE1 [1]): 6.00 to 7.00
- pIC50 (BACE1 [2]): 5.30 to 6.00

Compound: COc1ccc2c(c1)[C@]1(COC(N)=N1)c1cc(C#CC(C)(C)O)cnc1O2 [compound 903]
- pIC50 (BACE1 [1]; Table IV, class symbols): < 5.30
- pIC50 (BACE1 [2]; Table IV, class symbols): < 5.30

Compound: COc1ccc2c(c1)C1(COC(N)=N1)c1cc(-c3cc(Cl)c(C)cc3F)ccc1O2 (stereo not drawn) [Example 23, 2′-(5-chloro-2-fluoro-4-methylphenyl)-7′-methoxyspiro[1,3-oxazole-4,9′-xanthen]-2-amine]
- pIC50 (BACE1 [1]; Table 1): 5.30 to 6.00
- pIC50 (BACE1 [2]; Table 1, Aβ40, 24 h incubation): < 5.30

Compound: COC(C)(C)C#Cc1ccc2c(c1)[C@@]1(COC(N)=N1)c1cc(-c3cccnc3)cnc1O2 [compound 179]
- IC50 (BACE1 [1]): < 0.1 µM
- IC50 (BACE1 [2]): 0.1 to 1 µM

Compound: CC(C)(C)CCc1cnc2c(c1)[C@]1(COC(N)=N1)c1cc(-c3cncnc3)ccc1O2 [compound 472]
- pIC50 (BACE1 [1]): > 7.00
- pIC50 (BACE1 [2]; HEK cells): > 7.00

Compound: Cc1occc1-c1ccc2c(c1)[C@@]1(COC(N)=N1)c1cc(OCC(C)(C)C)ccc1O2 [compound 739]
- pIC50 (BACE1 [1]): 6.00 to 7.00
- pIC50 (BACE1 [2]): 5.30 to 6.00

Compound: NC1=N[C@]2(CO1)c1cc(OC[C@@H](O)C(F)(F)F)ccc1Oc1ccc(-c3cccnc3)cc12 [compound 925]
- pIC50 (BACE1 [1]): > 7.00
- pIC50 (BACE1 [2]): 6.00 to 7.00

Compound: NC1=N[C@]2(CO1)c1ccccc1Oc1ccc(C(=O)NC3CCCCC3)cc12 [compound 621]
- pIC50 (BACE1 [1]; Table IV, class symbols): < 5.30
- pIC50 (BACE1 [2]; Table IV, class symbols): < 5.30

Compound: CC(C)(C)COc1ccc2c(c1)[C@]1(COC(N)=N1)c1cc(-c3ccc(Cl)nc3)ccc1O2 [compound 887]
- pIC50 (BACE1 [1]; Table IV, class symbols): > 7.00
- pIC50 (BACE1 [2]; Table IV, class symbols): 6.00 to 7.00

Compound: COC(C)(C)C#Cc1ccc2c(c1)[C@]1(COC(N)=N1)c1cc(-c3cccnc3)cnc1O2 [208b]
- IC50 (BACE1 [1]): < 0.1 µM
- IC50 (BACE1 [2]): < 0.1 µM

Compound: Cn1cc(-c2cc(F)c3c(c2)[C@]2(COC(N)=N2)c2cc(-c4cccnc4)ccc2O3)cn1 [compound 509, (4S)-4′-fluoro-2′-(1-methyl-1H-pyrazol-4-yl)-7′-(3-pyridinyl)spiro[1,3-oxazole-4,9′-xanthen]-2-amine]
- pIC50 (BACE1 [1]): > 7.00
- pIC50 (BACE1 [2]; HEK cells): > 7.00

Compound: NC1=N[C@@]2(CO1)c1cc(-c3cccnc3)ccc1Oc1cnc(C3CCCCC3)cc12 [compound 791]
- pIC50 (BACE1 [1]): > 7.00
- pIC50 (BACE1 [2]): 6.00 to 7.00

Compound: NC1=N[C@]2(CO1)c1cc(Oc3ccccn3)ccc1Oc1ccc(-c3cccnc3)cc12 [compound 207]
- IC50 (BACE1 [1]): 0.1 to 1 µM
- IC50 (BACE1 [2]): 0.1 to 1 µM

Compound: N#Cc1ccccc1Oc1ccc2c(c1)[C@]1(COC(N)=N1)c1cc(Br)ccc1O2 [compound 997]
- pIC50 (BACE1 [1]): < 5.30
- pIC50 (BACE1 [2]): < 5.30

Compound: COc1cncc(-c2ccc3c(c2)[C@@]2(COC(N)=N2)c2cc(C#CC(C)(C)C)cnc2O3)c1 [compound 643]
- pIC50 (BACE1 [1]; Table IV, class symbols): > 7.00
- pIC50 (BACE1 [2]; Table IV, class symbols): > 7.00

Compound: Cc1csc(-c2ccc3c(c2)[C@]2(COC(N)=N2)c2cc(-c4cccnc4)ccc2O3)c1 [compound 726]
- pIC50 (BACE1 [1]): > 7.00
- pIC50 (BACE1 [2]): 6.00 to 7.00

Compound: COc1cc(F)c2c(c1)[C@]1(COC(N)=N1)c1cc(-c3cncnc3)ccc1O2 [compound 581]
- pIC50 (BACE1 [1]; Table IV, class symbols): > 7.00
- pIC50 (BACE1 [2]; Table IV, class symbols): > 7.00

Compound: CCOC(C)(C)COc1ccc2c(c1)[C@]1(COC(N)=N1)c1cc(-c3cncnc3)ccc1O2 [compound 170]
- IC50 (BACE1 [1]): < 0.1 µM
- IC50 (BACE1 [2]): < 0.1 µM

Compound: NC1=N[C@]2(CO1)c1ccccc1Oc1ccc(-c3cccc4cccnc34)cc12 [compound 630]
- pIC50 (BACE1 [1]; Table IV, class symbols): 5.30 to 6.00
- pIC50 (BACE1 [2]; Table IV, class symbols): < 5.30

Compound: NC1=N[C@@]2(CO1)c1cnccc1Oc1ccc(-c3cccnc3)cc12 [compound 556]
- pIC50 (BACE1 [1]; Table IV, class symbols): 6.00 to 7.00
- pIC50 (BACE1 [2]; Table IV, class symbols): 6.00 to 7.00

Compound: CC1(COc2cc3c(cc2F)Oc2ccc(-c4cncnc4)cc2[C@]32COC(N)=N2)COC1 [compound 713]
- pIC50 (BACE1 [1]): 6.00 to 7.00
- pIC50 (BACE1 [2]): 6.00 to 7.00

Compound: Cc1ccc(-n2ccc3c(c2=O)[C@@]2(COC(N)=N2)c2cc(-c4cccnc4)ccc2O3)cc1 [compound 566]
- pIC50 (BACE1 [1]; Table IV, class symbols): 6.00 to 7.00
- pIC50 (BACE1 [2]; Table IV, class symbols): 6.00 to 7.00

From patent US8426447B2, “Spiro-tricyclic ring compounds as beta-secretase modulators and methods of use” (Amgen Inc., priority 2008, dated 2013)
